Measured values reported in patent publication US8853424B2 (Japan Science and Technology Agency, priority 2008, dated 2014).

Columns and labels:
[1] = test system: Truncated N-terminal huntington 150 Q-EGFP-Neuron 2a cells; test: Measurement of x-Fold (polyglutamine aggregation inhibitory activity); assay type: cell-based
Procedure: In the present invention, the polyglutamine aggregation inhibitory activity (x-Fold) can be measured, for example, by the method described in the Example.
The number of the aggregated cells, and the total number of cells were counted by Array Scan V T1 (manufactured by Cellomics, Pittuburg, USA), and the ratio of the aggregated cells to the total number of cells was determined (x-Fold). […]

transglutaminase (TGase) = test: Measurement of TG (TGase inhibitory activity, monodansyl cadaverine / N,N-dimethylcasein fluorescence, FDSS 3000); assay type: biochemical
Procedure: For example, the method described in the Example can be performed.
The compound of the present invention (10 mM, 1 μL) was taken in a 96-well plate (Nunc, 96 Well Black Plate with Clear Bottom), an enzyme reaction solution (100 mM HEPES-NaOH, pH 7.5, 1 mM CaCl2, 20 μM monodansyl cadaverine, 0.05 mg/mL N,N-dimethylcasein, 5 μg/mL TGase) (0.1 ml) was added and the mixture was sufficiently mixed without making foams. The mixture was set on a fluorescence drug screening system FDSS 3000 (Hamamatsu Photonics K.K.), and changes in the fluorescence wavelength per unit time at 340 nm were measured, based on which the TGase inhibitory activity of the compound of the present invention was calculated. As a control, change in the fluorescence when 1 μL of DMSO (dimethyl sulfoxide) was added instead of the compound of the present invention was taken as 100, and TG50 was when the activity decreased to half due to the compound of the present invention.

[2] = polyglutamine aggregation inhibitory activity, Table 1
[3] = ratio of aggregated cells to total number of cells, compound 20 μM, 20 hr, almost 1 without compound, smaller = stronger inhibition
[4] = TGase activity with compound (10 mM, 1 μL in 0.1 ml enzyme reaction solution), DMSO control taken as 100
[5] = TGase inhibitory activity value, Table 1

Row | TGase activity remaining (% of DMSO control = 100) (transglutaminase (TGase); [4]) | TGase activity remaining (% of DMSO control = 100) (transglutaminase (TGase); [5]) | Molecule | x-Fold [1, 2] | x-Fold [1, 3] | also measured
1 | 99 | 99 | 4,4′-(phenyl piperazino-O,O-ethoxyboryl)benzylether [Example 197] | 1.02 | 1.02 | –
2 | 28 | 28 | NCCSB(c1ccc(Cl)cc1F)c1ccc(Cl)cc1F [Example 1, 2-aminoethylthio bis(4-chloro-2-fluorophenyl)borane] | 0.95 | 0.95 | –
3 | 76 | – | CN(C)CCOB(c1ccc(C(F)(F)F)cc1)c1ccc(C(F)(F)F)cc1 [Example 69, 2-dimethylaminoethyl bis(4-trifluoromethylphenyl)borinate] | – | 1.02 | x-Fold ([1]; polyglutamine aggregation inhibitory activity, Table 1, listed as 5034): 1.02; TGase activity remaining (% of DMSO control = 100) (transglutaminase (TGase); TGase inhibitory activity value, Table 1, listed as 5034): 76
4 | 97 | – | OB(c1ccc(C(F)(F)F)cc1)c1ccc(C(F)(F)F)cc1 [Example 75, bis(4-trifluoromethylphenyl)borinic acid] | – | 0.88 | x-Fold ([1]; polyglutamine aggregation inhibitory activity, Table 1, listed as 6001): 0.88; TGase activity remaining (% of DMSO control = 100) (transglutaminase (TGase); TGase inhibitory activity value, Table 1, listed as 6001): 97
5 | 117 | 117 | OB(c1ccc(F)c(Cl)c1)c1ccc(F)c(Cl)c1 [Example 76, bis(3-chloro-4-fluorophenyl)borinic acid] | 0.78 | 0.78 | –
6 | 98 | – | NCCOB(c1ccc(F)c(Cl)c1)c1ccc(F)c(Cl)c1 [Example 77, 2-aminoethyl-bis(3-chloro-4-fluorophenyl)borinate] | – | 0.91 | x-Fold ([1]; polyglutamine aggregation inhibitory activity, Table 1, listed as 6006): 0.91; TGase activity remaining (% of DMSO control = 100) (transglutaminase (TGase); TGase inhibitory activity value, Table 1, listed as 6006): 98
7 | 104 | 104 | CN(C)CCOB(c1ccc(F)c(Cl)c1)c1ccc(F)c(Cl)c1 [Example 78, 2-dimethylaminoethyl bis(3-chloro-4-fluorophenyl)borinate] | 1.02 | 1.02 | –
8 | 97 | 97 | OB(c1ccc(Cl)cc1F)c1ccc(Cl)cc1F [Example 79, bis(4-chloro-2-fluorophenyl)borinic acid] | 0.88 | 0.88 | –
9 | 93 | 93 | OB(c1ccc(F)c(F)c1)c1ccc(F)c(F)c1 [Example 80, bis(3,4-difluorophenyl)borinic acid] | 0.90 | 0.90 | –
10 | 97 | 97 | OB(c1cc(F)c(F)c(F)c1)c1cc(F)c(F)c(F)c1 [Example 81, bis(3,4,5-trifluorophenyl)borinic acid] | 0.92 | 0.92 | –
11 | 101 | – | OB(c1ccc(Cl)c(F)c1)c1ccc(Cl)c(F)c1 [Example 83, bis(3-fluoro-4-chlorophenyl)borinic acid] | – | 0.92 | x-Fold ([1]; polyglutamine aggregation inhibitory activity, Table 1, listed as 6012): 0.92; TGase activity remaining (% of DMSO control = 100) (transglutaminase (TGase); TGase inhibitory activity value, Table 1, listed as 6012): 101
12 | 91 | 91 | NCCOB(c1ccc(Cl)cc1F)c1ccc(Cl)cc1F [Example 84, 2-aminoethyl bis(4-chloro-2-fluorophenyl)borinate] | 0.92 | 0.92 | –
13 | 103 | – | NCCOB(c1ccc(F)c(Cl)c1)c1ccc(F)c(Cl)c1 [Example 86, 2-aminoethyl bis(3-chloro-4-fluorophenyl)borinate] | – | 0.99 | x-Fold ([1]; polyglutamine aggregation inhibitory activity, Table 1, listed as 6015): 0.99; TGase activity remaining (% of DMSO control = 100) (transglutaminase (TGase); TGase inhibitory activity value, Table 1, listed as 6015): 103
14 | 91 | 91 | NCCOB(c1ccc(F)c(F)c1)c1ccc(F)c(F)c1 [Example 87, 2-aminoethyl bis(3,4-difluorophenyl)borinate] | 1.02 | 1.02 | –
15 | 82 | 82 | NCC(OB(c1ccc(F)c(F)c1)c1ccc(F)c(F)c1)c1ccccc1 (centres unmarked) [Example 88, 2-amino-1-phenylethyl bis(3,4-difluorophenyl)borinate] | 0.83 | 0.83 | –
16 | 80 | 80 | NCCOB(c1cc(F)c(F)c(F)c1)c1cc(F)c(F)c(F)c1 [Example 89, aminoethyl bis(3,4,5-trifluorophenyl)borinate] | 0.94 | 0.94 | –
17 | 93 | 93 | Fc1cc(B(OCc2ccccn2)c2cc(F)c(F)c(F)c2)cc(F)c1F [Example 90, 2-pyridylmethyl bis(3,4,5-trifluorophenyl)borinate] | 0.81 | 0.81 | –

Row | TGase activity remaining (% of DMSO control = 100) (transglutaminase (TGase); [4]) | TGase activity remaining (% of DMSO control = 100) (transglutaminase (TGase); [5]) | Molecule | x-Fold [1, 2] | x-Fold [1, 3] | also measured
18 | – | – | OB(c1ccccc1)c1cccc(COCc2ccccc2B(O)c2ccccc2)c1 [Example 124, (2-phenylhydroxyborylbenzyl)(3-(phenylhydroxyboryl)benzyl)ether] | – | 0.96 | x-Fold ([1]; polyglutamine aggregation inhibitory activity, Table 1, listed as 656): 0.96
19 | – | – | FC(F)(F)c1ccc(C(OB(c2ccccc2)c2cc(B(OC(c3ccc(C(F)(F)F)cc3)c3ccccn3)c3ccccc3)cc(B(OC(c3ccc(C(F)(F)F)cc3)c3ccccn3)c3ccccc3)c2)c2ccccn2)cc1 (centres unmarked) [Example 132, 1,3,5-tri(2-pyridyl-4-trifluoromethylphenylmethoxyphenylboryl)benzene] | 0.95 | 0.95 | –
20 | – | – | Cc1ccc(Cl)cc1B(OCCNCc1ccccc1)c1cc(Cl)ccc1C [Example 164, di(3-chloro-6-methylphenyl)benzylaminoethylborinate] | – | 0.67 | –
21 | – | – | Cc1ccc(Cl)cc1B(OCCN)c1cc(Cl)ccc1C [Example 166, di(3-chloro-6-methylphenyl)aminoethylborinate] | – | 0.70 | –
22 | – | – | NCC(=O)OB(c1ccccc1)c1ccc(Oc2ccc(B(OC(=O)CN)c3ccccc3)cc2)cc1 [Example 169, di((phenylglycine-O,N boryl)phenyl)ether] | – | 0.78 | –
23 | – | – | CN(C)CCOB(c1ccccc1)c1cccc(COCc2cccc(B(OCCN(C)C)c3ccccc3)c2)c1 [Example 172, bis(3,3′(phenyldimethylaminoethoxyboryl)benzyl)ether] | – | 1.22 | x-Fold ([1]; polyglutamine aggregation inhibitory activity, Table 1, listed as 2024): 1.22
24 | – | – | Cc1ccc(B(OCCN(C)C)c2ccc(C)c(Cl)c2)cc1Cl [Example 207, di(3-chloro-4-methylphenyl)dimethylaminoethylborinate] | 0.91 | 0.91 | –
25 | – | – | Cc1ccc(B(OCC(N)Cc2ccccc2)c2ccc(C)c(Cl)c2)cc1Cl (centres unmarked) [Example 208, di(3-chloro-4-methylphenyl)-2-benzyl-2-aminoethylborinate] | 0.67 | 0.67 | –
26 | – | – | NC(COB(c1ccccc1)c1ccccc1)Cc1ccccc1 [Example 212, diphenyl(R) 2-benzyl-2-aminoethyl borinate] | – | 0.75 | x-Fold ([1]; polyglutamine aggregation inhibitory activity, Table 1, listed as 3073): 0.75
27 | – | – | NC(COB(c1ccccc1)c1ccccc1)Cc1ccccc1 [Example 213, diphenyl(S) 2-benzyl-2-aminoethyl borinate] | – | 1.00 | x-Fold ([1]; polyglutamine aggregation inhibitory activity, Table 1, listed as 3075): 1.00
28 | – | – | OB(c1ccc(C(F)(F)F)cc1)c1ccc(C(F)(F)F)cc1 [Example 230, di(trifluoromethylphenyl)borinic acid] | – | 1.03 | x-Fold ([1]; polyglutamine aggregation inhibitory activity, Table 1, listed as 4138): 1.03
29 | – | – | OB(c1cccs1)c1cccs1 [Example 253] | – | 1.11 | –
30 | – | – | OB(O)c1cccc2ccccc12 [Example 324, naphthaleneboronic acid] | 0.76 | 0.76 | –
31 | – | – | NCCOB(c1ccccc1)c1cccc(COCCc2ccccc2B(OCCN)c2ccccc2)c1 [Example 369] | 1.10 | 1.10 | –
32 | – | – | NCCOB(c1ccc(Oc2ccccc2)cc1)c1ccc(Oc2ccc(B(OCCN)c3ccc(Oc4ccccc4)cc3)cc2)cc1 [Example 398, bis(4,4′-(phenoxyphenyl-aminoethoxyboryl)phenyl)ether] | – | 0.88 | x-Fold ([1]; polyglutamine aggregation, Truncated N-terminal huntington 150 Q-EGFP-Neuron 2a cells): 0.88
33 | – | – | Cc1ccc(B(OC(=O)C(N)CC(N)=O)c2ccc(C)c(Cl)c2)cc1Cl (centres unmarked) [Example 448] | – | 0.95 | –
